Source: the kinase profiling compilation of Christmann-Franck et al. (2016)

Assays:
Test in all cases: radiometric filter-binding kinase assay, Kinase HotSpot
Details in all cases: compound 0.5 µM; ATP 10 µM
[1] = biological target: EPHA1 (human) (UniProt P21709)
[2] = biological target: FER (human) (UniProt P16591)
[3] = biological target: CDK1 CCNB1 (human) (UniProt P06493+P14635)
[4] = biological target: STK38 (human) (UniProt Q15208)
[5] = biological target: INSR (human) (UniProt P06213)
[6] = biological target: CSNK1G2 (human) (UniProt P78368)
[7] = biological target: EPHA6 (human) (UniProt Q9UF33)
[8] = biological target: ULK3 (human) (UniProt Q6PHR2)
[9] = biological target: HIPK1 (human) (UniProt Q86Z02)
[10] = biological target: PRKACG (human) (UniProt P22612)
[11] = biological target: TTK (human) (UniProt P33981)
[12] = biological target: JAK3 JH1 JH2 (human) (UniProt P52333)
[13] = biological target: AURKB (human) (UniProt Q96GD4)
Chain of AURKB (human) (Q96GD4 whole entry, looked up): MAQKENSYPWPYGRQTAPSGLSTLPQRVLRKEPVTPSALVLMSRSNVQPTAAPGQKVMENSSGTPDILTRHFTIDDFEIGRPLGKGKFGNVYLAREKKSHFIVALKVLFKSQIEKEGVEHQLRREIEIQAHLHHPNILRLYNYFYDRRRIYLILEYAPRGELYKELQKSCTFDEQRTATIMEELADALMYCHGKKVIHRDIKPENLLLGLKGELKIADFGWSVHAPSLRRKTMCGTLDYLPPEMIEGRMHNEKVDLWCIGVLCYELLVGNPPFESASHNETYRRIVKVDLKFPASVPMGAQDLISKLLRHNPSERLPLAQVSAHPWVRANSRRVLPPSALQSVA

[14] = biological target: ABL2 (human) (UniProt P42684)
[15] = biological target: CSNK2A2 (human) (UniProt P19784)
[16] = biological target: TLK2 (human) (UniProt Q86UE8)
Chain of TLK2 (human) (Q86UE8 whole entry, looked up): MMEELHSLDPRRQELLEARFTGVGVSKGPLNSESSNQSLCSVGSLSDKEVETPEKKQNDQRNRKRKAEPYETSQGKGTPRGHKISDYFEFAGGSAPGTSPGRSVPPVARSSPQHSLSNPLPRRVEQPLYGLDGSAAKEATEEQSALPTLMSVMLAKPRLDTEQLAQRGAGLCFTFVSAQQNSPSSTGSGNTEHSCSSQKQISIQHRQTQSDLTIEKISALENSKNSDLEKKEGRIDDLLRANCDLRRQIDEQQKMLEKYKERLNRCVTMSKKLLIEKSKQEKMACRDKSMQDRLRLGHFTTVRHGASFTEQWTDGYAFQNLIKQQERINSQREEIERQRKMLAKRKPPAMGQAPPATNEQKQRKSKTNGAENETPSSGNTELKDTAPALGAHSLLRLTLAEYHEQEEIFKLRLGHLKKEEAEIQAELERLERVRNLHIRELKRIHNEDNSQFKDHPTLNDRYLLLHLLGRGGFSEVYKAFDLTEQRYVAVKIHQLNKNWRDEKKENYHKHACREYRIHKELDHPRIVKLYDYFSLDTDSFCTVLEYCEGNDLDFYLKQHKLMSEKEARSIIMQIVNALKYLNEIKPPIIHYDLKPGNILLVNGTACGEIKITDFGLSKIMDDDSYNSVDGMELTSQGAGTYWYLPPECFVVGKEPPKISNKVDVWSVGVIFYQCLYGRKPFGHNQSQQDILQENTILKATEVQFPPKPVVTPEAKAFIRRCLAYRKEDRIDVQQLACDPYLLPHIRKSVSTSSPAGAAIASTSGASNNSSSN

[17] = biological target: MAPK3 (human) (UniProt P27361)
[18] = test system: ARAF (human), P10398 [Y301D/Y302D]
[19] = biological target: PDGFRB (human) (UniProt P09619)
[20] = biological target: HCK (human) (UniProt P08631)
[21] = biological target: BRAF (human) (UniProt P15056)
[22] = biological target: MYO3B (human) (UniProt Q8WXR4)
[23] = biological target: PAK4 (human) (UniProt O96013)
[24] = biological target: PKN2 (human) (UniProt Q16513)
[25] = biological target: FGFR3 (human) (UniProt P22607)
[26] = biological target: LIMK1 (human) (UniProt P53667)
[27] = biological target: PDPK1 (human) (UniProt O15530)
Chain of PDPK1 (human) (O15530 whole entry, looked up): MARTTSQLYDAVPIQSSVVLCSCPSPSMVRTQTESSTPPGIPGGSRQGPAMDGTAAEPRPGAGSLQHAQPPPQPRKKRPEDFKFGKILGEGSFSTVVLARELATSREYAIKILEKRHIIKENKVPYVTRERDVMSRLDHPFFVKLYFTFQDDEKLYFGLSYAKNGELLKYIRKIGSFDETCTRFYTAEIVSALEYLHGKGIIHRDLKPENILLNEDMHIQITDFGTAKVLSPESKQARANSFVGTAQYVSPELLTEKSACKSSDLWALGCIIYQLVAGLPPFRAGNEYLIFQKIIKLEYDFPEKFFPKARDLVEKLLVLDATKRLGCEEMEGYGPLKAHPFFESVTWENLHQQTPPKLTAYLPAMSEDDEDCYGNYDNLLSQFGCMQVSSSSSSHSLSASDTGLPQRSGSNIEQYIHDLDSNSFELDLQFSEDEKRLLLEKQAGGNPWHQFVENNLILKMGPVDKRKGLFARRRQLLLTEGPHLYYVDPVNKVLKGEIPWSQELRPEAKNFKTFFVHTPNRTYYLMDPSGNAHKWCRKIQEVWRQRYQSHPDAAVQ

[28] = biological target: EGFR (human) (UniProt P00533)
[29] = biological target: TAOK1 (human) (UniProt Q7L7X3)
[30] = biological target: TSSK1B (human) (UniProt Q9BXA7)
[31] = biological target: RPS6KA1 KD1 KD2 (human) (UniProt Q15418)
Chain of RPS6KA1 KD1 KD2 (human) (Q15418 whole entry, looked up): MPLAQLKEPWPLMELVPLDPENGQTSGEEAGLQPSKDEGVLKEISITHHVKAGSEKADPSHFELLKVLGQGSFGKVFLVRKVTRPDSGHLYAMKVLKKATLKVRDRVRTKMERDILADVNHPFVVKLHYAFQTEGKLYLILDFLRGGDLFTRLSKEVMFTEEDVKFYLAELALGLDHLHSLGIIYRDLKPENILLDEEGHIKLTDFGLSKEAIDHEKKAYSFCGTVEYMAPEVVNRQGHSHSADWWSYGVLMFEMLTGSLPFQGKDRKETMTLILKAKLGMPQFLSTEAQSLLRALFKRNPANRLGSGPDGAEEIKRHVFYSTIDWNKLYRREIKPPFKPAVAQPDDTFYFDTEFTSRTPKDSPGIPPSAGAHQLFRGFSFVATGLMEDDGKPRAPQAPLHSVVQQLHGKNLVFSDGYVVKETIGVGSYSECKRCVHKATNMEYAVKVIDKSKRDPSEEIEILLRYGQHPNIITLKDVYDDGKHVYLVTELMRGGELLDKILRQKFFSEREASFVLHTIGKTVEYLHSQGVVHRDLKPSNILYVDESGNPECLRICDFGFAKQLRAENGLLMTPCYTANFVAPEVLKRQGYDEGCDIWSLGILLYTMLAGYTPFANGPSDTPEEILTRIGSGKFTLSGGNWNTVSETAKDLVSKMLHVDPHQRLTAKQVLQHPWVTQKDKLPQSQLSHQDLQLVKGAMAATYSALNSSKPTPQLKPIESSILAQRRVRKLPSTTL

[32] = biological target: CHEK2 (human) (UniProt O96017)
[33] = biological target: IKBKE (human) (UniProt Q14164)
[34] = biological target: CAMK2D (human) (UniProt Q13557)
[35] = biological target: DAPK1 (human) (UniProt P53355)
[36] = biological target: RPS6KB2 (human) (UniProt Q9UBS0)
Chain of RPS6KB2 (human) (Q9UBS0 whole entry, looked up): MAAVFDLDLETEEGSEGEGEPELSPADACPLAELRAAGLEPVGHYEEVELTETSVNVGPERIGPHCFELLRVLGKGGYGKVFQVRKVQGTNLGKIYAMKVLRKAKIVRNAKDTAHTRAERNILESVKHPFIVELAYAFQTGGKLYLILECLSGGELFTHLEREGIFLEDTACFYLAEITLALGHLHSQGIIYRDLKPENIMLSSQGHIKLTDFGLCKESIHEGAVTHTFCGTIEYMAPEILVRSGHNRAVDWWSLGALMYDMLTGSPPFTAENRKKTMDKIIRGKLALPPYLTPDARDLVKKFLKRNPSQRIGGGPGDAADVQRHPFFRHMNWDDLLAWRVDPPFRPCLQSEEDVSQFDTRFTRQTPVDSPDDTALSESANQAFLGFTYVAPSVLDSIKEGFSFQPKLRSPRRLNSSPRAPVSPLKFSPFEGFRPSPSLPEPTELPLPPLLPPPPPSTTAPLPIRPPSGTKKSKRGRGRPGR

[37] = biological target: TNK2 (human) (UniProt Q07912)
Chain of TNK2 (human) (Q07912 whole entry, looked up): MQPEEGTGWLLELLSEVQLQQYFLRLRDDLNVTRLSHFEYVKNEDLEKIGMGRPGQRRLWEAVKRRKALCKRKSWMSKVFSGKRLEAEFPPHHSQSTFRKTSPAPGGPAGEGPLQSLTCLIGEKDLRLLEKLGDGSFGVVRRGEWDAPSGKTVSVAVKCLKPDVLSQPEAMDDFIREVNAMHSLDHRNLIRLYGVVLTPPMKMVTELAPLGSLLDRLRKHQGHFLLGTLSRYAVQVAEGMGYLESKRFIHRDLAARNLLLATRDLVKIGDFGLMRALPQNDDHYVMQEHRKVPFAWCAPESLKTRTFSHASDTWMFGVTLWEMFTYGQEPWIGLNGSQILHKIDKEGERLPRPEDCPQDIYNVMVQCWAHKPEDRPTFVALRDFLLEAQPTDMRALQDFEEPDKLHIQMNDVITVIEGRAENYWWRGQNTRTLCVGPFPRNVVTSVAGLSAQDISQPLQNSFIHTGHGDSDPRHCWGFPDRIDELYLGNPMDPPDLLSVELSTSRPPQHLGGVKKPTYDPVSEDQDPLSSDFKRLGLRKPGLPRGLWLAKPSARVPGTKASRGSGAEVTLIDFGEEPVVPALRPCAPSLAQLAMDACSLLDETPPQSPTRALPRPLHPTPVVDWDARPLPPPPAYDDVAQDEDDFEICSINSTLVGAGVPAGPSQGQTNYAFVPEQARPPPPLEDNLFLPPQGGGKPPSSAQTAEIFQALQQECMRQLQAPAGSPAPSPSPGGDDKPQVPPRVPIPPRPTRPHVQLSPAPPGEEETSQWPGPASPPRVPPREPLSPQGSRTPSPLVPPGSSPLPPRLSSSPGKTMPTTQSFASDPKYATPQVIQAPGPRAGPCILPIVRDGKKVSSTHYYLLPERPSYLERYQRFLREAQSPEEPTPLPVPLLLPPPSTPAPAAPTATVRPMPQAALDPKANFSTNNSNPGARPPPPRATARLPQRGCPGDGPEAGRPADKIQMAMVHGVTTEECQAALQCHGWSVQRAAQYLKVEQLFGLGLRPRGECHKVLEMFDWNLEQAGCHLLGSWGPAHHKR

[38] = biological target: PRKCB1 (human) (UniProt P05771)
[39] = biological target: NEK7 (human) (UniProt Q8TDX7)
[40] = biological target: CLK4 (human) (UniProt Q9HAZ1)
Chain of CLK4 (human) (Q9HAZ1 whole entry, looked up): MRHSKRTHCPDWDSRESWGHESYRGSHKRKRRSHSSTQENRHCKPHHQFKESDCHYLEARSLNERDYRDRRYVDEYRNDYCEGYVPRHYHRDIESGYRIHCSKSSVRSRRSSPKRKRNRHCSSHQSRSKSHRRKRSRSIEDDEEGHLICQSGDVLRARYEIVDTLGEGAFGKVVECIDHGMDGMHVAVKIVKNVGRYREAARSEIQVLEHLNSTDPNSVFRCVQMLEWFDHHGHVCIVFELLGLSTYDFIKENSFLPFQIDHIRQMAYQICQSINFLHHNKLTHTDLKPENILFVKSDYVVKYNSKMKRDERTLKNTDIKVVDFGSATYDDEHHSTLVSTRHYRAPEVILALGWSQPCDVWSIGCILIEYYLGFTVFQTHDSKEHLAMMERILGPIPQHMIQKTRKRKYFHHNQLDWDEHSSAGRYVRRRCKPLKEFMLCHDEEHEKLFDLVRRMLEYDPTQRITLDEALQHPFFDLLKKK

[41] = biological target: CAMKK2 (human) (UniProt Q96RR4)
[42] = biological target: MAPK12 (human) (UniProt P53778)

Chain of STK38 (human) (Q15208 whole entry, looked up): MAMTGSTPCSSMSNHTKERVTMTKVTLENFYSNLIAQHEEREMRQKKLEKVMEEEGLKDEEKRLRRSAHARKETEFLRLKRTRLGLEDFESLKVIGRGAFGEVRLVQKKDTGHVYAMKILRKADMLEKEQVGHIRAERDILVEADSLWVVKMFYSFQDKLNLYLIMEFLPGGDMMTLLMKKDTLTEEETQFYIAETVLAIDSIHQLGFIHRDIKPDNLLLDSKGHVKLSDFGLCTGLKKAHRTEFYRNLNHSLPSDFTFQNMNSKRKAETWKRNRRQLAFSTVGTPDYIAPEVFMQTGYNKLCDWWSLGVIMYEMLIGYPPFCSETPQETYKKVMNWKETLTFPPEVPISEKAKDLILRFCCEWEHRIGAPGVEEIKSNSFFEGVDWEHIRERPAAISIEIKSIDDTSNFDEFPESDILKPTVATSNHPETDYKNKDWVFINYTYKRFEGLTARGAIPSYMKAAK

Question: What does the source list for `CSc1nc(-c2ccc(F)cc2)c(-c2ccnc(NC(C)c3ccccc3)c2)[nH]1` (centres undefined)?
Answer: residual activity [1]: 89.8%; residual activity [2]: 97.2%; residual activity [3]: 106%; residual activity [4]: 104%; residual activity [5]: 100%; residual activity [6]: 75.6%; residual activity [7]: 75.8%; residual activity [8]: 85.3%; residual activity [9]: 110%; residual activity [10]: 115%; residual activity [11]: 102%; residual activity [12]: 98.5%; residual activity [13]: 98.4%; residual activity [14]: 95.7%; residual activity [15]: 88.8%; residual activity [16]: 106%; residual activity [17]: 68%; residual activity [18]: 99%; residual activity [19]: 97.6%; residual activity [20]: 83.5%; residual activity [21]: 91.8%; residual activity [22]: 100%; residual activity [23]: 96.4%; residual activity [24]: 76.1%; residual activity [25]: 83.7%; residual activity [26]: 103%; residual activity [27]: 91.3%; residual activity [28]: 87.1%; residual activity [29]: 79.9%; residual activity [30]: 73.5%; residual activity [31]: 99.4%; residual activity [32]: 94.2%; residual activity [33]: 84%; residual activity [34]: 99.3%; residual activity [35]: 101%; residual activity [36]: 92.8%; residual activity [37]: 78.4%; residual activity [38]: 92.2%; residual activity [39]: 89.6%; residual activity [40]: 79.2%; residual activity [41]: 84%

Question: How did the residual activity [1] turn out when `COc1ccc(-c2cnc3c(-c4ccsc4)cnn3c2)cc1` was run?
Answer: 91.5%

Question: What about the residual activity [2] of the same molecule?
Answer: 81.5%

Question: And the residual activity [3]?
Answer: 87.2%

Question: And the residual activity [4]?
Answer: 102%

Question: What about the residual activity [5] of the same molecule?
Answer: 92.5%

Question: What about the residual activity [6] of the same molecule?
Answer: 82.3%

Question: And the residual activity [7]?
Answer: 85.1%

Question: What about the residual activity [8] of the same molecule?
Answer: 79.4%

Question: What about the residual activity [9] of the same molecule?
Answer: 99.8%

Question: And the residual activity [10]?
Answer: 93.9%

Question: And the residual activity [11]?
Answer: 94.2%

Question: And the residual activity [12]?
Answer: 98.5%

Question: And the residual activity [13]?
Answer: 50.8%

Question: And the residual activity [14]?
Answer: 63.4%

Question: And the residual activity [15]?
Answer: 87.3%

Question: What about the residual activity [16] of the same molecule?
Answer: 96.2%

Question: What about the residual activity [17] of the same molecule?
Answer: 99.5%

Question: What about the residual activity [42] of the same molecule?
Answer: 94.8%

Question: What about the residual activity [19] of the same molecule?
Answer: 63.4%

Question: And the residual activity [20]?
Answer: 81.9%

Question: What about the residual activity [21] of the same molecule?
Answer: 85.9%

Question: And the residual activity [22]?
Answer: 84%

Question: What about the residual activity [23] of the same molecule?
Answer: 72.5%

Question: What about the residual activity [24] of the same molecule?
Answer: 107%

Question: What about the residual activity [25] of the same molecule?
Answer: 81.5%

Question: What about the residual activity [26] of the same molecule?
Answer: 71.2%

Question: What about the residual activity [27] of the same molecule?
Answer: 96%

Question: What about the residual activity [28] of the same molecule?
Answer: 92.3%

Question: And the residual activity [29]?
Answer: 105%

Question: And the residual activity [30]?
Answer: 99.1%

Question: And the residual activity [31]?
Answer: 85.7%

Question: What about the residual activity [32] of the same molecule?
Answer: 89.1%

Question: What about the residual activity [33] of the same molecule?
Answer: 85.5%

Question: And the residual activity [34]?
Answer: 92%

Question: And the residual activity [35]?
Answer: 103%

Question: What about the residual activity [36] of the same molecule?
Answer: 100%

Question: And the residual activity [37]?
Answer: 92.2%

Question: And the residual activity [38]?
Answer: 101%

Question: And the residual activity [39]?
Answer: 109%

Question: And the residual activity [40]?
Answer: 62%

Question: And the residual activity [41]?
Answer: 72.9%

Question: With `CC(C)[C@H](CO)Nc1nc(Nc2cccc(Cl)c2)c2ncn(C(C)C)c2n1` as the molecule, how does the residual activity [1] read?
Answer: 98.3%

Question: What about the residual activity [2] of the same molecule?
Answer: 62.9%

Question: What about the residual activity [3] of the same molecule?
Answer: 34.9%

Question: What about the residual activity [4] of the same molecule?
Answer: 90.5%

Question: What about the residual activity [5] of the same molecule?
Answer: 83%

Question: What about the residual activity [6] of the same molecule?
Answer: 32.4%

Question: What about the residual activity [7] of the same molecule?
Answer: 93.8%

Question: What about the residual activity [8] of the same molecule?
Answer: 59.6%

Question: And the residual activity [9]?
Answer: 103%

Question: What about the residual activity [10] of the same molecule?
Answer: 113%

Question: And the residual activity [11]?
Answer: 116%

Question: And the residual activity [12]?
Answer: 92.5%

Question: What about the residual activity [13] of the same molecule?
Answer: 97%

Question: And the residual activity [14]?
Answer: 32.2%

Question: What about the residual activity [15] of the same molecule?
Answer: 93.2%

Question: And the residual activity [16]?
Answer: 94.7%

Question: And the residual activity [17]?
Answer: 104%

Question: What about the residual activity [42] of the same molecule?
Answer: 106%

Question: And the residual activity [18]?
Answer: 96.5%

Question: And the residual activity [19]?
Answer: 106%

Question: What about the residual activity [20] of the same molecule?
Answer: 55.6%

Question: What about the residual activity [21] of the same molecule?
Answer: 92.7%

Question: And the residual activity [22]?
Answer: 94.2%

Question: And the residual activity [23]?
Answer: 99.5%

Question: What about the residual activity [25] of the same molecule?
Answer: 99.2%

Question: What about the residual activity [26] of the same molecule?
Answer: 86.3%

Question: And the residual activity [27]?
Answer: 91.6%

Question: And the residual activity [28]?
Answer: 94.2%

Question: And the residual activity [29]?
Answer: 95.4%

Question: What about the residual activity [30] of the same molecule?
Answer: 102%

Question: And the residual activity [31]?
Answer: 77.3%

Question: What about the residual activity [32] of the same molecule?
Answer: 88.1%

Question: And the residual activity [33]?
Answer: 99.2%

Question: What about the residual activity [34] of the same molecule?
Answer: 102%

Question: What about the residual activity [35] of the same molecule?
Answer: 99.7%

Question: What about the residual activity [36] of the same molecule?
Answer: 101%

Question: What about the residual activity [37] of the same molecule?
Answer: 55.6%

Question: And the residual activity [38]?
Answer: 102%

Question: What about the residual activity [39] of the same molecule?
Answer: 101%

Question: What about the residual activity [40] of the same molecule?
Answer: 50.9%

Question: What about the residual activity [41] of the same molecule?
Answer: 70.9%

Question: With `COc1cc2ncnc(Nc3ccc(F)c(Cl)c3)c2cc1OCCCN1CCOCC1` as the molecule, how does the residual activity [1] read?
Answer: 87.4%

Question: What about the residual activity [2] of the same molecule?
Answer: 94.1%

Question: What about the residual activity [3] of the same molecule?
Answer: 99.1%

Question: And the residual activity [4]?
Answer: 105%

Question: And the residual activity [5]?
Answer: 107%

Question: What about the residual activity [6] of the same molecule?
Answer: 98.1%

Question: And the residual activity [7]?
Answer: 28.9%

Question: What about the residual activity [8] of the same molecule?
Answer: 108%

Question: And the residual activity [9]?
Answer: 97.6%

Question: What about the residual activity [10] of the same molecule?
Answer: 107%

Question: What about the residual activity [11] of the same molecule?
Answer: 96.3%

Question: What about the residual activity [12] of the same molecule?
Answer: 96.6%

Question: What about the residual activity [13] of the same molecule?
Answer: 106%

Question: What about the residual activity [14] of the same molecule?
Answer: 72%

Question: What about the residual activity [15] of the same molecule?
Answer: 88.6%

Question: What about the residual activity [16] of the same molecule?
Answer: 80.4%

Question: What about the residual activity [17] of the same molecule?
Answer: 100%

Question: And the residual activity [42]?
Answer: 97.5%

Question: And the residual activity [18]?
Answer: 95.3%

Question: What about the residual activity [19] of the same molecule?
Answer: 93.9%

Question: And the residual activity [20]?
Answer: 73.3%

Question: What about the residual activity [21] of the same molecule?
Answer: 95.8%

Question: And the residual activity [22]?
Answer: 91.4%

Question: And the residual activity [23]?
Answer: 90.2%

Question: What about the residual activity [24] of the same molecule?
Answer: 93.1%

Question: And the residual activity [25]?
Answer: 79.3%

Question: What about the residual activity [26] of the same molecule?
Answer: 90%

Question: What about the residual activity [27] of the same molecule?
Answer: 88.2%

Question: And the residual activity [29]?
Answer: 103%

Question: And the residual activity [30]?
Answer: 90%

Question: And the residual activity [31]?
Answer: 97.3%

Question: And the residual activity [32]?
Answer: 84%

Question: What about the residual activity [33] of the same molecule?
Answer: 89.9%

Question: And the residual activity [34]?
Answer: 92.4%

Question: What about the residual activity [35] of the same molecule?
Answer: 109%

Question: What about the residual activity [36] of the same molecule?
Answer: 101%

Question: What about the residual activity [37] of the same molecule?
Answer: 72.8%

Question: What about the residual activity [38] of the same molecule?
Answer: 95%

Question: And the residual activity [39]?
Answer: 96.9%

Question: And the residual activity [40]?
Answer: 107%

Question: And the residual activity [41]?
Answer: 103%
